The subject of experiment [1] is barnyardgrass (Echinochloa crus-galli (L.) Beauv.) (BG). Kind of experiment: Preemergence herbicide test, soil drench, barnyardgrass. Particulars: Echinochloa crus-galli, 336 h, 10 lbs/A (11.2 kg/ha) soil drench, two weeks after treatment, vs untreated checks, read-out: Percent Weed Control BG. It counts as in vivo. The essentials: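 Compound formulated in acetone with ethoxylated sorbitan monolaurate, diluted to 250 ppm and drenched onto soil surface of seeded pots at 10 pounds/acre (11.2 kg/ha), preemergence. Percent weed control versus untreated checks scored two weeks after treatment.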

Experiment [2] concerns tall morningglory (Ipomoea purpurea (L.) Roth) (TM). As to the kind of experiment: Preemergence herbicide test, soil drench, tall morningglory. Particulars: Ipomoea, 336 h, 10 lbs/A (11.2 kg/ha) soil drench, two weeks after treatment, vs untreated checks, read-out: Percent Weed Control TM. It is filed as in vivo. The gist of the method:
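Acetone/emulsifier formulation diluted to 250 ppm and drenched onto soil surface of seeded pots at 10 lb/acre (11.2 kg/ha), preemergence. Percent weed control versus untreated checks scored two weeks after treatment.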

For experiment [3], the system named is velvetleaf (Abutilon theophrasti Medik.) (VL). As to the kind of experiment: Preemergence herbicide test, soil drench, velvetleaf. It is filed as in vivo. Particulars: Abutilon theophrasti, 336 h, 10 lbs/A (11.2 kg/ha) soil drench, two weeks after treatment, vs untreated checks, read-out: Percent Weed Control VL. The gist of the method: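 Compound in acetone/ethoxylated sorbitan monolaurate, diluted to 250 ppm in water, was drenched onto the soil surface of pots sown with velvetleaf at 10 lb/acre (11.2 kg/ha). Percent control versus untreated checks was rated two weeks after treatment.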

Experiment [4] relates to green foxtail (Setaria virdis (L.) Beauv.) (GF). Kind of experiment: Preemergence herbicide test, soil drench, green foxtail. It counts as in vivo. Particulars: Setaria, 336 h, 10 lbs/A (11.2 kg/ha) soil drench, two weeks after treatment, vs untreated checks, read-out: Percent Weed Control GF. The essentials:
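Compound in acetone/water with ethoxylated sorbitan monolaurate emulsifier, applied as 250 ppm soil drench at 10 lb/acre (11.2 kg/ha) to pots sown with green foxtail seed. Percent weed control versus untreated checks rated two weeks after treatment.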

For experiment [5], the system named is jimsonweed (Datura stramonium L.) (JW). Kind of experiment: Preemergence herbicide test, soil drench, jimsonweed. It is filed as in vivo. Particulars: 10 lbs/A (11.2 kg/ha) soil drench, two weeks after treatment, vs untreated checks. As to the method:
To illustrate the effectiveness of the previously described substituted oxadiazines of this invention as preemergence herbicides, 300 mg of the chemical was dissolved in a composition comprising 10 mL acetone to which 30 mg of tile emulsifying agent, ethoxylated sorbitan monolaurate, was added. The solution was diluted to 100 mL with distilled water. Ten milliliters of this 3000 ppm solution was diluted to 250 ppm with distilled water. The chemical was applied at the rate of 10 pounds/acre (11.2 kg/ha) by drenchings 46 mL of the 250 ppm solution on the surface of soil in 4½ inch (11.25 cm) plastic pots wherein seeds of the following weeds had been planted: jimsonweed (Datura stramonium L.) (JW), The percent control of the weeds compared to untreated checks was determined two weeks after treatment. TABLE 1 summarizes the results achieved with compounds formulated as indicated above, and the data clearly indicate the good to excellent herbicidal efficacy of compositions of this invention.

A further experiment deals with insects. As to the kind of experiment: Insecticidal properties (no method given). Particulars: statement in words, no test details.
The subject of experiment [6] is switchgrass (Panicum virgahim L.) (SG). Kind of experiment: Preemergence herbicide test, soil drench, switchgrass. Particulars: Panicum, 336 h, 10 lbs/A (11.2 kg/ha) soil drench, two weeks after treatment, vs untreated checks, read-out: Percent Weed Control SG. It counts as in vivo. The essentials: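 Preemergence soil drench at 10 pounds/acre (11.2 kg/ha), 46 mL of 250 ppm aqueous solution (acetone, ethoxylated sorbitan monolaurate) applied to pots sown with switchgrass seed. Percent weed control versus untreated checks scored two weeks after treatment.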

The source of these data is patent US6514911B1, “Substituted oxadiazines useful as pesticides” (Uniroyal Chemical Company, Inc., priority 2002, dated 2003).

Molecules are shown by their SMILES.

On to `FC(F)(F)C(F)(F)C(F)(F)C1=NC(C(F)(F)F)(C(F)(F)F)N=C(c2cccc(Cl)c2)O1` [Compound 26, 2-(3-chlorophenyl)-6-(heptafluoropropyl)-4,4-bis(trifluoromethyl)-4H-1,3,5-oxadiazine], for which the pest or weed control at 11208.5 g/ha in experiment [1], in experiment [2], in experiment [3], in experiment [4] and in experiment [6] was 100% throughout. In experiment [5], the “Percent Weed Control JW” value worked out at 100%. Besides, the insecticidal properties result in the experiment with insects was “found to have insecticidal properties”.
